Source: patent publication US7678386B2, “Liposomes coated with selected antibodies that bind to aminophospholipids” (Board of Regents the University of Texas, priority 2002, dated 2010)
Read-outs that look alike come from different tables or passages of the source.

Key:
[1] = test system: vascular endothelium of MDA-MB-231 tumors; test: Double staining study, orthotopic MDA-MB-231 tumors; format: in vivo, mouse; details: biotinylated reagent i.v., one hour
Method: In further studies, mice bearing MDA-MB-231 tumors (0.3-0.7 cm^3 in volume) were injected intravenously with 50 μg of biotinylated 9D2, control IgM or annexin V (six mice per group). Biotinylated reagents were first incubated with streptavidin-Cy3 conjugate, washed in PBS. then incubated with MECA 32 antibody followed by FITC-tagged anti-rat IgG secondary antibody. Single images, taken with appropriate filters for Cy3 (red) and FITC (green) fluorescence respectively, were captured by digital camera and transferred to a computer. […] The same method was used to analyze tumors from mice injected with control rat IgM or saline. The percentage of vessels with localized 9D2 or annexin V was calculated as follows: mean number of yellow vessels per field divided by mean number of green (total) vessels multiplied by 100.
Double staining studies were also performed in which mice bearing orthotopic MDA-MB-231 breast tumors were injected intravenously with biotinylated 9D2 antibody, biotinylated control IgM or biotinylated annexin V. One hour later, the mice were exsanguinated, and their tumors were removed and frozen sections were cut. The tumor sections were then stained with Cy3-conjugated streptavidin to detect the biotinylated proteins and with FITC-conjugated MECA32 to detect vascular endothelium. […]

[2] = test system: blood vessels of L540 tumors; test: Annexin V inhibition of coaguligand-induced thrombosis in vivo; design: species or system mouse
Method: The ability of Annexin V to inhibit coaguligand-induced thrombosis in vivo was examined in L540 Hodgkin-bearing SCID mice. Tumors were grown in mice and two mice per group (tumor size 0.5 cm in diameter) were injected intravenously via the tail vein with one of the following reagents: a) saline; b) 100 μg of Annexin V; c) 40 μg of anti-VCAM-1•tTF; d) 100 μg of Annexin V followed 2 hours later by 40 μg of anti-VCAM-1•tTF.
Four hours after the last injection mice were anesthetized and perfused with heparinized saline. Tumors were removed, fixed with 4% formalin, paraffin-embedded and stained with hematoxylene-eosin. The number of thrombosed and non-thrombosed blood vessels was counted and the percentage of thrombosis was calculated.

[3] = Anti-PS ELISA on PS-coated plates; format: binding
Method: The anti-PS ELISA used in the present studies is conducted as follows. Unless particular differences are specified, this is the format of the ELISA used throughout the studies of the present application.
The ELISA is exemplified using the antigen PS (P-6641 25 mg 10 mg/ml (solvent is Chloroform:MeOH 95:5) in 2.5 ml bottle). Other phospholipids can be used using the same protocol. The PS (or other phospholipids) stock solution should be aliquoted and stored in an airtight container at −30° C. The preferred 96 well plates are Dynatech U bottom Immulon 1 (from Dynatech Labs. Cat# 011-010-3550).
The standard blocking buffer used herein is 10% bovine serum dissolved in PBS. Other blocking solutions are suitable, but any detergents should be excluded from block and wash solutions. The primary antibody is the test sample or admixture. The preferred secondary antibody is goat, anti-mouse IgG-HRP. The developing solutions are: 10 ml of 0.2 M Na2PO4, 10 ml of 0.1 M citric acid, one 10 mg tablet of OPD, and 10 μl of hydrogen peroxide. The stop solution is 0.18 M H2SO4.
(§1) The protocol entails coating 96-well plate with PS as follows: dilute the PS stock solution in n-hexane to 10 μg/ml and mix well. Add 50 μl to each well and allow this to evaporate for one hour. Add 200 μl of 10% serum (or other blocking buffer) to each well, cover and maintain at room temperature for 2 hours or overnight at 4° C. Wash the plate three times with PBS. Add the primary antibody (dilute in blocking buffer) and incubate for 2 hours at 37° C. Wash three times with PBS. Add 100 μl/well of secondary antibody (typically goat. anti-mouse IgG-HRP or other appropriate secondary antibody) and incubate for 1 hour at 37° C. Wash the plate three times with PBS. Develop the ELISA by adding 100 μl of developing solution to each of the wells, develop for 10 minutes, then add 100 μl of stop solution to each plate and read the O.D. at 490 nm.

[4] = test system: Factor Xa generation on IL-1α-stimulated bEnd.3 cells; test: Factor Xa formation induced by coaguligand (chromogenic assay); format: cell-based, mouse; details: 10 μg per ml
Method: The ability of Annexin V to affect Factor Xa formation induced by coaguligand was determined by a chromogenic assay. IL-1α-stimulated bEnd.3 cells were incubated with anti-VCAM-•tTF and permeabilized by saponin. Annexin V was added at concentrations ranging from 0.1 to 10 μg/ml and cells were incubated for 30 min. before addition of diluted Proplex T. The amount of Factor Xa generated in the presence or absence of Annexin V was determined. Each treatment was performed in duplicate and repeated at least twice.

[5] = ELISA on plates coated with phospholipids (specificity); format: binding; details: identical antibody concentration
Method: as §1
The specificity of the antibodies was determined by ELISA using plates coated with the following phospholipids: PS, phosphatidylserine; PE, phosphatidylethanolamine; PI, phosphatidylinositol: PA. phosphatidic acid; PG, phosphatidylglycerol; PC, phosphatidylcholine: CL, cardiolipin; and SM, sphingomyelin.
The 1B9, 2G7 and 7C5 antibodies behave essentially the same. These antibodies recognize only PS and require serum or serum proteins for binding to PS. […]

Annexin V: high affinity PS binding ligand; natural ligand of anionic phospholipids and PE
MECA 32 positive vessels that bound the reagent [1]: About 40%
coaguligand-induced intravascular thrombosis and changes in tumor cell morphology ([2]; 100 μg Annexin V 2 hours before 40 μg coaguligand): completely abolished
tumor morphology ([2]; 100 μg Annexin V alone): did not alter tumor morphology
EC50 ([3]; MW used for conversion: IgM 900 kDa, IgG 150 kDa, Annexin V 36 kDa, read-out: EC50): 2.77 nM
EC50 ([3]; dilutions of tissue culture supernatants): 0.100 µg/mL
Affinity vs. 3SB (-fold increased) ([3]; from EC50 in nM): 0.18 -fold
Binding vs. 3SB (-fold increased) ([3]; from EC50 in μg/ml): 4.68 -fold
inhibition of factor Xa production [4]: 58%
Relative Strength of Reactivity on ELISA [5]: PS = PE = PI = PA > CL > PG
